Measurements published in patent US20050148631A1, “Amino heterocyclyl inhibitors of 11-beta-hydroxy steroid dehydrogenase type 1” (AGOURON PHARMACEUTICALS, INC., priority 2003, published 2005).
Like-named read-outs stand apart in the source and are kept apart here.

Biological target: 11β-hsd-1 enzyme (Homo sapiens, UniProt P28845)
Assay: 11β-hsd-1 enzyme assay, percentage of inhibition (3H-cortisone to cortisol, radio-HPLC)
Format: biochemical
Conditions: read-out: % inh @ 0.1 uM

11β-hsd-1 enzyme, sequence (P28845 whole entry, species assumed): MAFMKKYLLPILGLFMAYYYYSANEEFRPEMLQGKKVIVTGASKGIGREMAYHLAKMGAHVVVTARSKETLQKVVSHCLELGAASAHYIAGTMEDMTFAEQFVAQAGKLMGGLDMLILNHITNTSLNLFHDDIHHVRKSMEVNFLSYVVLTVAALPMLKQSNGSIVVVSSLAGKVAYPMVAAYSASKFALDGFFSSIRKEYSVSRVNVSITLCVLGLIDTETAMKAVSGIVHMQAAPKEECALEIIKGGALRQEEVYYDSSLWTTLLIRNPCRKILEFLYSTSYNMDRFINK

inhibition at 0.1 µM (0.1 uM) [%]	SMILES	further results
88	Cc1cccc(-c2ccc(S(=O)(=O)Nc3cccc(C)n3)c(C)c2)c1 [Example 189]	–
53	CCOc1ccccc1-c1ccc(S(=O)(=O)Nc2cccc(C)n2)c(C)c1 [Example 188]	–
71	Cc1cccc(NS(=O)(=O)c2ccc(-c3ccc(S(C)(=O)=O)cc3)cc2)n1 [Example 158]	–
91	Cc1cccc(NS(=O)(=O)c2ccc(-c3ccc(Cl)c(Cl)c3)cc2)n1 [Example 140]	–
37.9	CSc1ccccc1-c1ccc(S(=O)(=O)Nc2cccc(C)n2)cc1 [Example 139]	–
59.8	Cc1cccc(NS(=O)(=O)c2ccc(/C=C/c3ccccc3)cc2)n1 [Example 151]	–
72.7	Cc1cccc(NS(=O)(=O)c2ccc(-c3cc(F)c(F)c(F)c3)cc2)n1 [Example 152]	–
79	Cc1cccc(NS(=O)(=O)c2ccc(-c3ccc4ccccc4c3)cc2)n1 [Example 137]	–
91.2	Cc1cccc(NS(=O)(=O)c2ccc(-c3ccc4c(c3)OCO4)cc2)n1 [Example 138]	–

Continued, molecule first:

SMILES	inhibition at 0.1 µM (0.1 uM) [%]	further results
Cc1cccc(NS(=O)(=O)c2ccc(N3CCOCC3)nc2)n1 [Example 83]	11.1	–
Cc1cc(C)nc(NS(=O)(=O)c2cccc(Cl)c2C)c1 [Example 44]	16	–
Cc1c(Cl)cccc1S(=O)(=O)Nc1cccc(CO)n1 [Example 116]	37.2	–
Cc1cc(N)nc(NS(=O)(=O)c2ccc(-c3ccc(C#N)cc3)cc2)c1 [Example 113, 4′-Cyano-biphenyl-4-sulfonic acid (6-amino-4-methyl-pyridin-2-yl)-amide]	100	–
Cc1cccc(NS(=O)(=O)c2ccc3oc4ccccc4c3c2)n1 [Example 63]	32.7	–
N#Cc1ccc(-c2ccc(S(=O)(=O)Nc3cc(O)c4ccccc4n3)cc2)cc1 [Example 105]	16.9	–
CCN(CC)C(=O)Cc1cc(C)cc(NS(=O)(=O)c2cccc(Cl)c2C)n1 [Example 15]	23.6	–
Cc1ccc(-c2ccc(S(=O)(=O)Nc3cccc(C)n3)cc2)cc1 [Example 124]	84	–
Cc1cccc(NS(=O)(=O)Cc2cc(Cl)cc(Cl)c2)n1 [Example 75]	19.2	–
Cc1c(Cl)cccc1S(=O)(=O)Nc1cccc(CC(=O)N2CCCC(C)(C)C2)n1 [Example 28]	45.6	–
Cc1c(Cl)cccc1S(=O)(=O)Nc1cccc(CC(=O)N2CCN(C)CC2)n1 [Example 11]	–	inhibition at 0.1 µM: 8.05%
Cc1cccc(NS(=O)(=O)c2c(Cl)nc3sccn23)n1 [Example 80]	8	–
Cc1cccc(NS(=O)(=O)c2ccc(-c3ccc(C(N)=O)cc3)cc2)n1 [Example 262, 4′-(6-Methyl-pyridin-2-ylsulfamoyl)-biphenyl-4-carboxylic acid amide]	–	inhibition at 0.1 µM (compound at 0.1 uM): 45.7%
CCOC(=O)Cc1cccc(NS(=O)(=O)c2ccc(C(F)(F)F)cc2)n1 [Example 5]	0.3	–
CCc1cccc(NS(=O)(=O)c2ccc(C(C)C)cc2)n1 [Example 76]	15.6	–
C=CCN(C)C(=O)Cc1cccc(NS(=O)(=O)c2cccc(Cl)c2C)n1 [Example 16]	10.9	–
Cc1cccc(NS(=O)(=O)Cc2ccc(Cl)c(Cl)c2)n1 [Example 74]	28.9	–
Cc1cccc(NS(=O)(=O)c2ccc(-c3ccc(CC(C)C)cc3)c(C)c2)n1 [Example 248]	–	inhibition at 0.1 µM (compound at 0.1 uM): 57%
Cc1cc(CC(=O)N2CCCCC2)nc(NS(=O)(=O)c2cccc(Cl)c2C)c1 [Example 14]	25.9	–
COC(=O)c1cccc(NS(=O)(=O)c2cccc(Cl)c2C)n1 [Example 4]	23.9	–
CCN(CC)C(=O)CCc1ccc(NS(=O)(=O)c2cccc(Cl)c2C)nc1 [Example 18]	34.6	–
Cc1c(Cl)cccc1S(=O)(=O)Nc1cccc(CC(=O)N2CCSCC2)n1 [Example 10]	38.7	–
Cc1cccc(NS(=O)(=O)Cc2cccc(Cl)c2)n1 [Example 67]	49.6	–
Cc1cccc(NS(=O)(=O)c2ccc(-c3ccc(F)c(F)c3)c(C)c2)n1 [Example 244]	–	inhibition at 0.1 µM (compound at 0.1 uM): 86%
COc1ccc(-c2ccc(S(=O)(=O)Nc3cccc(C)n3)cc2)c(OC)c1 [Example 135]	49.1	–

SMILES	inhibition at 0.1 µM (0.1 uM) [%]	further results
Cc1cccc(NS(=O)(=O)c2ccc(-n3cccn3)cc2)n1 [Example 92]	29.8	–
Cc1cccc(N(CCN(C)C)S(=O)(=O)c2ccc(-c3ccc(C#N)cc3)cc2)n1 [Example 265, 4′-Cyano-biphenyl-4-sulfonic acid (2-dimethylamino-ethyl)-(6-methyl-pyridin-2-yl)-amide]	–	inhibition at 0.1 µM (compound at 0.1 uM): 11.4%
COC(=O)CCc1ccc(NS(=O)(=O)c2cccc(Cl)c2C)nc1 [Example 3]	19.6	–
Cc1nnc2n1CCN(S(=O)(=O)Nc1ccc3ccccc3n1)CC2 [Example 312]	–	inhibition at 0.1 µM (compound at 0.1 uM): 6.9%
COc1cccc(NS(=O)(=O)c2ccc(C(F)(F)F)cc2)n1 [Example 62]	1.3	–
Cc1cccc(NS(=O)(=O)c2ccc(F)cc2F)n1 [Example 55]	7.4	–
C=Cc1ccc(-c2ccc(S(=O)(=O)Nc3cccc(C)n3)cc2)cc1 [Example 127]	100	–
Cc1cccc(NS(=O)(=O)c2ccc(-c3c(C)cccc3C)c(C)c2)n1 [Example 241]	–	inhibition at 0.1 µM (compound at 0.1 uM): 64%
Cc1cccc(NS(=O)(=O)c2ccc(-c3ccc(F)c(Cl)c3)cc2)n1 [Example 123]	89.9	–
Cc1cccc(NS(=O)(=O)c2ccc(-c3ccccc3F)c(C)c2)n1 [Example 230]	–	inhibition at 0.1 µM (compound at 0.1 uM): 23%
Cc1ccnc(NS(=O)(=O)c2ccc(-c3ccccc3)cc2)n1 [Example 59]	3.8	–
COc1ccc(-c2ccc(S(=O)(=O)Nc3cccc(C)n3)cc2)c(C)c1 [Example 255]	–	inhibition at 0.1 µM (compound at 0.1 uM): 64.6%
Cc1cccc(NS(=O)(=O)N2CCC(c3ccccc3)(c3ccccc3)CC2)n1 [Example 307]	–	inhibition at 0.1 µM (compound at 0.1 uM): 29.5%
Cc1cccc(NS(=O)(=O)c2cnn(-c3ccccc3)c2C)n1 [Example 99]	15	–
Cc1ccc(S(=O)(=O)Nc2cccc(C)n2)cc1 [Example 49]	82.6	–
COc1ccc(C)nc1NS(=O)(=O)c1ccc(-c2ccc(C)cc2)cc1 [Example 278]	–	inhibition at 0.1 µM (compound at 0.1 uM): 42.8%
Cc1cc(C)nc(NS(=O)(=O)c2ccc(C(F)(F)F)cc2)c1 [Example 77]	35.4	–
Cc1cccc(NS(=O)(=O)c2ccc(C#N)cc2)n1 [Example 90]	24.8	–
Cc1cccc(NS(=O)(=O)c2ccc(-c3ncccn3)nc2)n1 [Example 261]	–	inhibition at 0.1 µM (compound at 0.1 uM): 2.6%
CN(C)Cc1cccc(NS(=O)(=O)c2ccc(-c3ccc(C#N)cc3)cc2)n1 [Example 79]	8.1	–
Cc1ccc(C)c(-c2ccc(S(=O)(=O)Nc3cccc(C)n3)cc2C)c1 [Example 240]	–	inhibition at 0.1 µM (compound at 0.1 uM): 89%
Cc1cccc(NS(=O)(=O)c2cccc(C(F)(F)F)c2)n1 [Example 50]	10.1	–
Cc1cccc(N(CCO)S(=O)(=O)c2ccc(-c3ccc(C#N)cc3)cc2)n1 [Example 266, 4′-Cyano-biphenyl-4-sulfonic acid (2-hydroxy-ethyl)-(6-methyl-pyridin-2-yl)-amide]	–	inhibition at 0.1 µM (compound at 0.1 uM): 9.6%
Cc1cccc(NS(=O)(=O)N2CCC(C#N)(c3ccccc3)CC2)n1 [Example 305]	–	inhibition at 0.1 µM (compound at 0.1 uM): 1.1%
Cc1nc(NS(=O)(=O)c2ccc(-c3ccc(C#N)cc3)cc2)ccc1C#N [Example 101]	32	–
